Reference: PubChem BioAssay (NCI)
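Grown in 96-well plates, cells were treated for 48 hours with each compound at five concentrations. Insufficient inhibition: endpoint recorded as highest concentration tested. GI50 = concentration required for 50% inhibition of growth. TGI marks complete inhibition of growth.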

Columns and labels:
Test in all cases: NCI-60 cell line screen, 48 h
SF-268 CNS = tested on: SF-268 CNS
OVCAR-4 ovarian = tested on: OVCAR-4 ovarian
SK-OV-3 ovarian = tested on: SK-OV-3 ovarian
NCI-H23 lung = tested on: NCI-H23 lung
LOX IMVI melanoma = tested on: LOX IMVI melanoma
HCC-2998 colon = tested on: HCC-2998 colon
HL-60(TB) leukemia = tested on: HL-60(TB) leukemia
A549 NSCLC = tested on: A549 NSCLC
T-47D breast = tested on: T-47D breast
PC-3 prostate = tested on: PC-3 prostate
SK-MEL-28 melanoma = tested on: SK-MEL-28 melanoma
OVCAR-3 ovarian = tested on: OVCAR-3 ovarian
SW-620 colon = tested on: SW-620 colon
SK-MEL-5 melanoma = tested on: SK-MEL-5 melanoma
HS 578T breast = tested on: HS 578T breast
UACC-62 melanoma = tested on: UACC-62 melanoma
BT-549 breast = tested on: BT-549 breast
HOP-62 NSCLC = tested on: HOP-62 NSCLC
MDA-MB-435 = tested on: MDA-MB-435
SNB-75 CNS = tested on: SNB-75 CNS
MOLT-4 leukemia = tested on: MOLT-4 leukemia
HCT-116 colon = tested on: HCT-116 colon
MCF7 breast = tested on: MCF7 breast
U251 CNS = tested on: U251 CNS
HCT-15 colon = tested on: HCT-15 colon
ACHN renal = tested on: ACHN renal
SK-MEL-2 melanoma = tested on: SK-MEL-2 melanoma
MDA-MB-231 breast = tested on: MDA-MB-231 breast
CAKI-1 renal = tested on: CAKI-1 renal
K-562 leukemia = tested on: K-562 leukemia
SF-539 CNS = tested on: SF-539 CNS
SNB-19 CNS = tested on: SNB-19 CNS
NCI-H226 lung = tested on: NCI-H226 lung
SN12C renal = tested on: SN12C renal
MALME-3M melanoma = tested on: MALME-3M melanoma
NCI-H460 lung = tested on: NCI-H460 lung
M14 melanoma = tested on: M14 melanoma
RPMI-8226 leukemia = tested on: RPMI-8226 leukemia
UACC-257 melanoma = tested on: UACC-257 melanoma
RXF 393 renal = tested on: RXF 393 renal
DU-145 prostate = tested on: DU-145 prostate
TK-10 renal = tested on: TK-10 renal
SF-295 CNS = tested on: SF-295 CNS
EKVX NSCLC = tested on: EKVX NSCLC
KM12 colon = tested on: KM12 colon
CCRF-CEM leukemia = tested on: CCRF-CEM leukemia
OVCAR-8 ovarian = tested on: OVCAR-8 ovarian
COLO 205 colon = tested on: COLO 205 colon
NCI/ADR-RES ovarian = tested on: NCI/ADR-RES ovarian
UO-31 renal = tested on: UO-31 renal
HT29 colon = tested on: HT29 colon
A498 renal = tested on: A498 renal
OVCAR-5 ovarian = tested on: OVCAR-5 ovarian
786-0 renal = tested on: 786-0 renal
NCI-H522 lung = tested on: NCI-H522 lung
IGROV1 ovarian = tested on: IGROV1 ovarian
HOP-92 NSCLC = tested on: HOP-92 NSCLC

NS(=O)(=O)N(c1cc(C(F)(F)F)cc(C(F)(F)F)c1)C1CCN(Cc2ccc(C(F)(F)F)cc2)CC1
GI50 (SF-268 CNS): 7.55 µM | TGI (SF-268 CNS): 17.9 µM | GI50 (OVCAR-4 ovarian): 6.89 µM | TGI (OVCAR-4 ovarian): 14.5 µM | GI50 (SK-OV-3 ovarian): 9.26 µM | TGI (SK-OV-3 ovarian): 22.2 µM | GI50 (NCI-H23 lung): 6.88 µM | TGI (NCI-H23 lung): 14 µM | GI50 (LOX IMVI melanoma): 7.43 µM | TGI (LOX IMVI melanoma): 14 µM | GI50 (HCC-2998 colon): 6.9 µM | TGI (HCC-2998 colon): 13.4 µM | GI50 (HL-60(TB) leukemia): 1.63 µM | TGI (HL-60(TB) leukemia): 7.84 µM | GI50 (A549 NSCLC): 7.35 µM | TGI (A549 NSCLC): 15.6 µM | GI50 (T-47D breast): 5.61 µM | TGI (T-47D breast): 11.9 µM | GI50 (PC-3 prostate): 4.56 µM | TGI (PC-3 prostate): 12.5 µM | GI50 (SK-MEL-28 melanoma): 8.5 µM | TGI (SK-MEL-28 melanoma): 17.7 µM | GI50 (OVCAR-3 ovarian): 6.23 µM | TGI (OVCAR-3 ovarian): 12.6 µM | GI50 (SW-620 colon): 6.77 µM | TGI (SW-620 colon): 15.4 µM | GI50 (SK-MEL-5 melanoma): 7.63 µM | TGI (SK-MEL-5 melanoma): 14.7 µM | GI50 (HS 578T breast): 6.34 µM | TGI (HS 578T breast): 22.9 µM | GI50 (UACC-62 melanoma): 7.14 µM | TGI (UACC-62 melanoma): 16.3 µM | GI50 (BT-549 breast): 7.99 µM | TGI (BT-549 breast): 14.7 µM | GI50 (HOP-62 NSCLC): 7.94 µM | TGI (HOP-62 NSCLC): 15 µM | GI50 (MDA-MB-435): 7.04 µM | TGI (MDA-MB-435): 13.6 µM | GI50 (SNB-75 CNS): 2.86 µM | TGI (SNB-75 CNS): 13 µM | GI50 (MOLT-4 leukemia): 3.77 µM | TGI (MOLT-4 leukemia): 15.9 µM | GI50 (HCT-116 colon): 5.41 µM | TGI (HCT-116 colon): 11.4 µM | GI50 (MCF7 breast): 6.09 µM | TGI (MCF7 breast): 12.3 µM | GI50 (U251 CNS): 5.92 µM | TGI (U251 CNS): 12.7 µM | GI50 (HCT-15 colon): 5.88 µM | TGI (HCT-15 colon): 12.5 µM | GI50 (ACHN renal): 7.92 µM | TGI (ACHN renal): 14.6 µM | GI50 (SK-MEL-2 melanoma): 9.91 µM | TGI (SK-MEL-2 melanoma): 18.3 µM | GI50 (MDA-MB-231 breast): 9.65 µM | TGI (MDA-MB-231 breast): 20.8 µM | GI50 (CAKI-1 renal): 5.04 µM | TGI (CAKI-1 renal): 11.1 µM | GI50 (K-562 leukemia): 0.409 µM | TGI (K-562 leukemia): 10.3 µM | GI50 (SF-539 CNS): 7.8 µM | TGI (SF-539 CNS): 15.3 µM | GI50 (SNB-19 CNS): 9.39 µM | TGI (SNB-19 CNS): 20.2 µM | GI50 (NCI-H226 lung): 7.9 µM | TGI (NCI-H226 lung): 15.5 µM | GI50 (SN12C renal): 6.86 µM | TGI (SN12C renal): 13.7 µM | GI50 (MALME-3M melanoma): 7.47 µM | TGI (MALME-3M melanoma): 14.2 µM | GI50 (NCI-H460 lung): 7.49 µM | TGI (NCI-H460 lung): 16.4 µM | GI50 (M14 melanoma): 7.57 µM | TGI (M14 melanoma): 14.5 µM | GI50 (RPMI-8226 leukemia): 6.88 µM | TGI (RPMI-8226 leukemia): 20.3 µM | GI50 (UACC-257 melanoma): 7.54 µM | TGI (UACC-257 melanoma): 15 µM | GI50 (RXF 393 renal): 5.89 µM | TGI (RXF 393 renal): 12.2 µM | GI50 (DU-145 prostate): 7.87 µM | TGI (DU-145 prostate): 15.4 µM | GI50 (TK-10 renal): 7.03 µM | TGI (TK-10 renal): 14.5 µM | GI50 (SF-295 CNS): 6.82 µM | TGI (SF-295 CNS): 13.5 µM | GI50 (EKVX NSCLC): 7.18 µM | TGI (EKVX NSCLC): 15.2 µM | GI50 (KM12 colon): 6.81 µM | TGI (KM12 colon): 14.9 µM | GI50 (CCRF-CEM leukemia): 8.98 µM | TGI (CCRF-CEM leukemia): 24.2 µM | GI50 (OVCAR-8 ovarian): 8.35 µM | TGI (OVCAR-8 ovarian): 17.4 µM | GI50 (COLO 205 colon): 7.86 µM | TGI (COLO 205 colon): 14.6 µM | GI50 (NCI/ADR-RES ovarian): 6.82 µM | TGI (NCI/ADR-RES ovarian): 13.3 µM | GI50 (UO-31 renal): 3.17 µM | TGI (UO-31 renal): 9.87 µM | GI50 (HT29 colon): 2.89 µM | TGI (HT29 colon): 10.2 µM | GI50 (A498 renal): 5.61 µM | TGI (A498 renal): 12 µM | GI50 (OVCAR-5 ovarian): 7.88 µM | TGI (OVCAR-5 ovarian): 16 µM | GI50 (786-0 renal): 7.47 µM | TGI (786-0 renal): 14.1 µM | GI50 (NCI-H522 lung): 6.42 µM | TGI (NCI-H522 lung): 13.2 µM | GI50 (IGROV1 ovarian): 5.56 µM | TGI (IGROV1 ovarian): 11.6 µM

CC1CCC(C(C)C2C(O)CC3C4CC=C5CC(O)CCC5(C)C4CCC32C)NC1 (configuration not stated)
TGI (SF-268 CNS): > 100 µM | TGI (OVCAR-4 ovarian): 53.4 µM | TGI (SK-OV-3 ovarian): > 100 µM | TGI (NCI-H23 lung): > 100 µM | TGI (LOX IMVI melanoma): 51 µM | TGI (HCC-2998 colon): 53.1 µM | TGI (HL-60(TB) leukemia): 52.8 µM | TGI (A549 NSCLC): > 100 µM | TGI (T-47D breast): > 100 µM | TGI (PC-3 prostate): 95.4 µM | TGI (SK-MEL-28 melanoma): > 100 µM | TGI (SW-620 colon): > 100 µM | TGI (SK-MEL-5 melanoma): > 100 µM | TGI (HS 578T breast): > 100 µM | TGI (UACC-62 melanoma): > 100 µM | TGI (BT-549 breast): > 100 µM | TGI (HOP-62 NSCLC): 66 µM | TGI (MDA-MB-435): 65.8 µM | TGI (SNB-75 CNS): > 100 µM | TGI (MOLT-4 leukemia): 35.8 µM | TGI (HCT-116 colon): > 100 µM | TGI (MCF7 breast): > 100 µM | TGI (U251 CNS): 70.3 µM | TGI (HCT-15 colon): > 100 µM | TGI (ACHN renal): > 100 µM | TGI (SK-MEL-2 melanoma): > 100 µM | TGI (MDA-MB-231 breast): 81.6 µM | TGI (HOP-92 NSCLC): 69.8 µM | TGI (K-562 leukemia): > 100 µM | TGI (SF-539 CNS): > 100 µM | TGI (SNB-19 CNS): 74.5 µM | TGI (NCI-H226 lung): > 100 µM | TGI (SN12C renal): 47.2 µM | TGI (MALME-3M melanoma): 55.2 µM | TGI (NCI-H460 lung): > 100 µM | TGI (M14 melanoma): > 100 µM | TGI (UACC-257 melanoma): > 100 µM | TGI (RXF 393 renal): > 100 µM | TGI (DU-145 prostate): > 100 µM | TGI (TK-10 renal): 30.4 µM | TGI (EKVX NSCLC): > 100 µM | TGI (OVCAR-8 ovarian): 29.3 µM | TGI (COLO 205 colon): > 100 µM | TGI (NCI/ADR-RES ovarian): 58.2 µM | TGI (UO-31 renal): > 100 µM | TGI (HT29 colon): > 100 µM | TGI (A498 renal): > 100 µM | TGI (OVCAR-5 ovarian): > 100 µM | TGI (786-0 renal): 89.9 µM | TGI (NCI-H522 lung): > 100 µM
